Active and inactive are the calls of the source.
How the values were obtained:
[1] = target: T1, Tyrosinase (Agaricus bisporus) (UniProt O42713); assay: Induction of pheomelanogenesis assessed as mushroom tyrosinase-mediated simulation of pheomelanogenesis by measuring oxidation of L-DOPA at 4.5 to 184.4 mM after 48 hrs by Vis-spectrophotometer analysis in presence of 0.65 to 3.2 mM of glutathione
T1 sequence (whole entry): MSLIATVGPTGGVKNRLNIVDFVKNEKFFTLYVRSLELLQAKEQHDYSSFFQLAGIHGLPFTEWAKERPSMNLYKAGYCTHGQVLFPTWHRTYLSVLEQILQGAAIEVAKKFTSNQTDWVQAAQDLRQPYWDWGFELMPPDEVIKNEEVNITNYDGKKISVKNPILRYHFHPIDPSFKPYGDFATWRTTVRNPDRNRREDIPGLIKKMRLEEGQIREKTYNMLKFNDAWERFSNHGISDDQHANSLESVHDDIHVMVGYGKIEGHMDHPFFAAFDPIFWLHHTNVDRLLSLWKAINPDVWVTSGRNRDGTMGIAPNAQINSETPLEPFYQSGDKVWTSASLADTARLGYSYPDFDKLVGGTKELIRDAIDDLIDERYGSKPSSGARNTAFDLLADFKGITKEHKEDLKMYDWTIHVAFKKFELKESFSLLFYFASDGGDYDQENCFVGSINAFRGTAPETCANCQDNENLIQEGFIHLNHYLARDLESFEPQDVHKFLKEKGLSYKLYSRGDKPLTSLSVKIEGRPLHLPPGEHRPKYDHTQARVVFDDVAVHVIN

[2] = target: T1, Tyrosinase (Agaricus bisporus); assay: Induction of eumelanogenesis assessed as mushroom tyrosinase-mediated simulation of eumelanogenesis by measuring oxidation of L-DOPA at 4.5 to 184.4 mM after 48 hrs by Vis-spectrophotometer analysis in absence of glutathione
[3] = target: T1, Tyrosinase (Agaricus bisporus); assay: Induction of eumelanogenesis assessed as mushroom tyrosinase-mediated simulation of eumelanogenesis by measuring oxidation of L-DOPA at 4.5 to 184.4 mM after 48 hrs by Vis-spectrophotometer analysis in absence of glutathione and presence of H2O2
[4] = target: T1, Tyrosinase (Agaricus bisporus); assay: Inhibition of mushroom tyrosinase-mediated simulation of pheomelanogenesis assessed as oxidation of L-DOPA at 4.5 to 184.4 mM after 48 hrs by Vis-spectrophotometer analysis in presence of 16.3 to 81.3 mM of glutathione
[5] = target: T1, Tyrosinase (Agaricus bisporus); assay: Induction of pheomelanogenesis assessed as mushroom tyrosinase-mediated simulation of pheomelanogenesis by measuring oxidation of L-DOPA at 4.5 to 184.4 mM after 48 hrs by Vis-spectrophotometer analysis in presence of 0.65 to 3.2 mM of glutathione and H2O2

CCCCS(=N)(=O)CCC(N)C(=O)O (racemic)
active: Activity [1] | Activity [2] | Activity [3] | inhibition [4] | Activity [5]

Source: ChEMBL document CHEMBL3286294, “Buthionine sulfoximine diverts the melanogenesis pathway toward the production of more soluble and degradable pigments” (Bioorg Med Chem Lett, 2014)
